# Measurements taken from patent US10183010B2, “2-oxo-1,2-dihydrobenzo[cd]indole compound and use thereof” (Guangzhou Institutes of Biomedicine and Health, Chinese …, priority 2015, dated 2019).
# Experiments:
# BRD4(1) protein [1] = molecular target: T1, BRD4(1) protein (Homo sapiens, UniProt O60885); test: AlphaScreen assay: disruption of the interaction of BRD4(1) and biotinylated acetylated peptide; type: binding; conditions: BRD4(1) protein with H4KAc4-biotin peptide, 20° C.
# T1 construct: BRD4(1) protein, 500 nM; inferred from the use of nickel acceptor beads
# Description: BRD4(1) protein, 500 nM; buffer, (10×) MOPS (500 mM), CHAPS (0.5 mM), NaF (500 mM), BSA (1 mg/mL), PH (7.4); streptavidin donor beads 50 μg/mL, nickel acceptor beads 50 μg/mL, BRD4(1) ligand, biotinylated SRC1-4 peptide, H4KAc4-botin (SGRG{Lys-Ac}GG{Lys-Ac}GLG{Lys-Ac}GGA{Lys-Ac} RHR{Lys(biotin)}) 50 nM.
# The BRD4(1) protein and biotinylated SRC1-4 peptide were added in ddH2O and buffer. […] The reaction mixture was incubated at 20° C. in dark for 1 h. The reaction mixture (40 μL) was transferred to 384 well plates, and tested by PE Envison2104 multifunctional detection of microplate reader.
# BRD4(1) protein [2] = molecular target: T1, BRD4(1) protein; test: TSA assay: thermodynamic stability of BRD4(1); type: binding; conditions: SYPRO Orange, 30° C. to 80° C.
# Description: Activity test in vitro: the compounds of the present invention were conducted the TSA assay to determine the thermodynamic stability of BRD4(1).
# BRD4(1) protein, 100 μM; compounds, 400 μM, buffer, (10×) MOPS (50 mM), NaCl (150 mM), glycerin 10%, PH (7.5); Sypro Orange Protein Gel Stain (500×). Mix system: BRD4(1) protein, 2 μL; Sypro Orange Protein Gel Stain (500×), 2 μL; compound, 10 μL; buffer, 2 μL; ddH2O, 2 μL, positive compound, (+)-JQ1.
# The […] reaction mix was added to 96-well PCR plates. SYPRO Orange (Sigma) was added as a fluorescence probe at a dilution of 1:1000 and incubated with compounds on ice for 30 min. The total DMSO concentration was less than 2%. The TSA was carried out using the Bio-Rad CFX96 Real-Time PCR System. The temperature was raised at a step of 0.5° C. per minute from 30° C. to 80° C. The fluorescence readings were recorded at a 0.5° C. interval, and obtained the ΔTm.
Structure (SMILES),IC50 (BRD4(1) protein [1]),TSA ΔTm (BRD4(1) protein [2])
"CCN1C(=O)c2cccc3c(NS(=O)(=O)c4ccc(F)cc4)ccc1c23 [Example 9, N-(1-ethyl-2-oxo-1,2-dihydrobenzo[cd]indol-6-yl)-4-fluorobenzenesulfonamide]",0.41 µM,9.5 °C
"CCN1C(=O)c2cccc3c(S(=O)(=O)NC4CCN(C(=O)OC(C)(C)C)C4)ccc1c23 (stereo not drawn) [Example 84, tert-butyl 3-(1-ethyl-2-oxo-1,2-dihydrobenzo[cd]indole-6-sulfonamido)pyrrolidine-1-carboxylate]",4.1 µM,3.5 °C
"CCN1C(=O)c2cccc3c(NS(=O)(=O)Cc4ccccc4F)ccc1c23 [Example 42, N-(1-ethyl-2-oxo-1,2-dihydrobenzo[cd]indol-6-yl)-1-(2-fluorophenyl)methanesulfonamide]",4.15 µM,6 °C
"CCN1C(=O)c2cccc3c(NC(=O)Cc4ccc(Cl)cc4Cl)ccc1c23 [Example 49, 2-(2,4-dichlorophenyl)-N-(1-ethyl-2-oxo-1,2-dihydrobenzo[cd]indol-6-yl)acetamide]",> 20 µM,0 °C
"CCN1C(=O)c2cccc3c(NS(=O)(=O)c4ccccc4C(=O)OC)ccc1c23 [Example 6, Methyl 2-(N-(1-ethyl-2-oxo-1,2-dihydrobenzo[cd]indol-6-yl)sulfamoyl)benzoate]",1.7 µM,6.5 °C
"CCN1C(=O)c2cccc3c(S(=O)(=O)NCCN4CCNC4=O)ccc1c23 [Example 81, 1-ethyl-2-oxo-N-(2-(2-oxoimidazolidin-1-yl)ethyl)-1,2-dihydrobenzo[cd]indole-6-sulfonamide]",> 20 µM,2.4 °C
"CCN1C(=O)c2cccc3c(NC(=O)Cc4ccc(Cl)cc4)ccc1c23 [Example 47, 2-(4-chlorophenyl)-N-(1-ethyl-2-oxo-1,2-dihydrobenzo[cd]indol-6-yl)acetamide]",> 20 µM,0 °C
"CCN1C(=O)c2cccc3c(NS(=O)(=O)C4CCCC4)ccc1c23 [Example 21, N-(1-ethyl-2-oxo-1,2-dihydrobenzo[cd]indol-6-yl)cyclopentanesulfonamide]",0.34 µM,8.1 °C
"CCN1C(=O)c2cccc3c(NC(=O)Cc4ccc(OC)c(OC)c4)ccc1c23 [Example 48, 2-(3,4-dimethoxyphenyl)-N-(1-ethyl-2-oxo-1,2-dihydrobenzo[cd]indol-6-yl)acetamide]",> 20 µM,3.6 °C
"CCN1C(=O)c2cccc3c(NS(=O)(=O)c4cccc(C(=O)OC)c4)ccc1c23 [Example 27, methyl 3-(N-(1-ethyl-2-oxo-1,2-dihydrobenzo[cd]indol-6-yl)sulfamoyl)benzoate]",3.13 µM,4.2 °C
"CCN1C(=O)c2cccc3c(NC(=O)c4ccc(Cl)cc4)ccc1c23 [Example 53, 4-chloro-N-(1-ethyl-2-oxo-1,2-dihydrobenzo[cd]indol-6-yl)benzamide]",> 20 µM,0 °C
"CCN1C(=O)c2cccc3c(NS(=O)(=O)c4ccccc4Br)ccc1c23 [Example 30, 2-bromo-N-(1-ethyl-2-oxo-1,2-dihydrobenzo[cd]indol-6-yl)benzenesulfonamide]",0.97 µM,7.2 °C
"CCN1C(=O)c2cccc3c(NS(=O)(=O)Cc4ccc(C(=O)OC)cc4)ccc1c23 [Example 36, methyl4-((N-(1-ethyl-2-oxo-1,2-dihydrobenzo[cd]indol-6-yl)sulfamoyl)methyl)benzoate]",7.31 µM,1.2 °C
"CCN1C(=O)c2cccc3c(NS(=O)(=O)c4ccc(OC)cc4)ccc1c23 [Example 12, N-(1-ethyl-2-oxo-1,2-dihydrobenzo[cd]indol-6-yl)-4-methoxybenzenesulfonamide]",5.59 µM,6.5 °C
"CCN1C(=O)c2cccc3c(NCc4ccc(OC)cc4)ccc1c23 [Example 58, 1-ethyl-6-((4-methoxybenzyl)amino)benzo[cd]indol-2(1H)-one]",2.7 µM,2 °C
"CCN1C(=O)c2cccc3c(S(=O)(=O)Nc4ccc(NC(C)=O)nc4)ccc1c23 [Example 83, N-(5-(1-ethyl-2-oxo-1,2-dihydrobenzo[cd]indole-6-sulfonamido)pyridin-2-yl)acetamide]",12 µM,2.4 °C
"CCN1C(=O)c2cccc3c(NC(=O)Cc4ccc(C)cc4)ccc1c23 [Example 54, N-(1-ethyl-2-oxo-1,2-dihydrobenzo[cd]indol-6-yl)-2-(p-tolyl)acetamide]",> 20 µM,0 °C
"CCN1C(=O)c2cccc3c(NS(=O)(=O)C4CCCCC4)ccc1c23 [Example 5, N-(1-ethyl-2-oxo-1,2-dihydrobenzo[cd]indol-6-yl)cyclohexanesulfonamide]",0.14 µM,10 °C
"CCN1C(=O)c2cccc3c(NCc4ccc(C)cc4)ccc1c23 [Example 59, 1-ethyl-6-((4-methylbenzyl)amino)benzo[cd]indol-2(1H)-one]",> 20 µM,1 °C
"CCN1C(=O)c2cccc3c(NS(=O)(=O)c4cc(Cl)ccc4OC)ccc1c23 [Example 4, 5-chloro-N-(1-ethyl-2-oxo-1,2-dihydrobenzo[cd]indol-6-yl)-2-methoxybenzenesulfonamide]",0.52 µM,8.5 °C
"CCN1C(=O)c2cccc3c(S(=O)(=O)Nc4ccc(NC(C)=O)cc4)ccc1c23 [Example 75, N-(4-(1-ethyl-2-oxo-1,2-dihydrobenzo[cd]indole-6-sulfonamido)phenyl)acetamide]",4.7 µM,3.5 °C
"CCN1C(=O)c2cccc3c(NS(=O)(=O)c4cccc(Cl)c4Cl)ccc1c23 [Example 35, 2,3-dichloro-N-(1-ethyl-2-oxo-1,2-dihydrobenzo[cd]indol-6-yl)benzenesulfonamide]",2.55 µM,4.5 °C

# Next, values leading:
IC50 (BRD4(1) protein [1]),TSA ΔTm (BRD4(1) protein [2]),Structure (SMILES)
> 20 µM,0 °C,"CC(C)CN1C(=O)c2cccc3c(S(=O)(=O)NC4CCCCC4)ccc1c23 [Example 117, N-cyclohexyl-1-isobutyl-2-oxo-1,2-dihydrobenzo[cd]indole-6-sulfonamide]"
1.21 µM,7 °C,"CCN1C(=O)c2cccc3c(S(=O)(=O)NC4CCOCC4)ccc1c23 [Example 108, 1-ethyl-2-oxo-N-(tetrahydro-2H-pyran-4-yl)-1,2-dihydrobenzo[cd]indole-6-sulfonamide]"
1.67 µM,6.1 °C,"CCN1C(=O)c2cccc3c(S(=O)(=O)NC4CCOC4)ccc1c23 (stereo not drawn) [Example 92, 1-ethyl-2-oxo-N-(tetrahydrofuran-3-yl)-1,2-dihydrobenzo[cd]indole-6-sulfonamide]"
> 20 µM,0.7 °C,"CCN1C(=O)c2cccc3c(S(=O)(=O)NCCN4CCCC4)ccc1c23 [Example 90, 1-ethyl-2-oxo-N-(2-(pyrrolidin-1-yl)ethyl)-1,2-dihydrobenzo[cd]indole-6-sulfonamide]"
3.38 µM,3.3 °C,"CCN1C(=O)c2cccc3c(S(=O)(=O)Nc4ccc(Cl)cc4)ccc1c23 [Example 120, N-(4-chlorophenyl)-1-ethyl-2-oxo-1,2-dihydrobenzo[cd]indole-6-sulfonamide]"
> 20 µM,2 °C,"CCN1C(=O)c2cccc3c(S(=O)(=O)NCCN4CCCCC4)ccc1c23 [Example 102, 1-ethyl-2-oxo-N-(2-(piperidin-1-yl)ethyl)-1,2-dihydrobenzo[cd]indole-6-sulfonamide]"
> 20 µM,2 °C,"O=C1Nc2ccc(S(=O)(=O)NC3CCCCC3)c3cccc1c23 [Example 118, N-cyclohexyl-2-oxo-1,2-dihydrobenzo[cd]indole-6-sulfonamide]"
8.27 µM,1 °C,"CCN1C(=O)c2cccc3c(S(=O)(=O)NCCN4CCN(C(=O)OC(C)(C)C)CC4)ccc1c23 [Example 109, tert-butyl 4-(2-(1-ethyl-2-oxo-1,2-dihydrobenzo[cd]indole-6-sulfonamido)ethyl)piperazine-1-carboxylate]"
0.45 µM,7 °C,"CCN1C(=O)c2cccc3c(S(=O)(=O)NC4CCCCCC4)ccc1c23 [Example 107, N-cycloheptyl-1-ethyl-2-oxo-1,2-dihydrobenzo[cd]indole-6-sulfonamide]"
> 20 µM,1 °C,"CCN1C(=O)c2cccc3c(S(=O)(=O)NC)ccc1c23 [Example 96, 1-ethyl-N-methyl-2-oxo-1,2-dihydrobenzo[cd]indole-6-sulfonamide]"
> 20 µM,3.5 °C,"CCCCCCNS(=O)(=O)c1ccc2c3c(cccc13)C(=O)N2CC [Example 89, 1-ethyl-N-hexyl-2-oxo-1,2-dihydrobenzo[cd]indole-6-sulfonamide]"
